Experimental data as given in patent US20210284952A1, “METHODS OF APPLYING ACETATE TOXICITY AND INDUCING ACETATE UPTAKE IN MICROALGAE CULTURES” (HELIAE DEVELOPMENT LLC, priority 2016, published 2021).
Where two headings read alike, the source gives them in different places.

Key:
Chlorella sp. HS26 [1] = details: 2.4 g/L
Procedure: This experiment was conducted to determine the effect of different culture medium pH levels on the growth of Chlorella sp. HS26 at a constant culture medium acetate concentration. Duplicate 100 ml flasks of axenic cultures of Chlorella were adjusted to initial pH levels of 2.5, 3.5, 4.5, 5.5, 6.5, 7.0, 7.5, 8.5, 9.5, and 10.5. The culture pH was adjusted using either hydrochloric acid (HCl) or sodium hydroxide (NaOH). […] Samples of the flask culture were taken initially and every other day over a six day period (144 hours).

Chlorella sp. HS26 [2] = system: Chlorella sp. HS26
Procedure: Cultures of Chlorella sp. […] 100 mL volume cultures were prepared in 250 mL flasks, and cultured at a pH of 7.5, temperature of 25° C., a shaking frequency of 100 rpm, and a light intensity of 100 μM photon/m^2 s for 7 days (168 hours).

Structure (SMILES): CC(=O)[O-].[Na+] [Sodium Acetate, sodium acetate]
- Cell Dry Weight of Chlorella (Chlorella sp. HS26 [1]; initial pH 6.5, 0 h): 0.6 g/L
- Cell Dry Weight of Chlorella (Chlorella sp. HS26 [1]; initial pH 6.5, 24 h): 0.8 g/L
- Cell Dry Weight of Chlorella (Chlorella sp. HS26 [1]; initial pH 6.5, 48 h): 1.8 g/L
- Cell Dry Weight of Chlorella (Chlorella sp. HS26 [1]; initial pH 6.5, 96 h): 4.3 g/L
- Cell Dry Weight of Chlorella (Chlorella sp. HS26 [1]; initial pH 6.5, 144 h): 6.0 g/L
- Cell Dry Weight of Chlorella (Chlorella sp. HS26 [1]; initial pH 7.5, 0 h): 0.6 g/L
- Cell Dry Weight of Chlorella (Chlorella sp. HS26 [1]; initial pH 7.5, 24 h): 0.6 g/L
- Cell Dry Weight of Chlorella (Chlorella sp. HS26 [1]; initial pH 7.5, 48 h): 1.7 g/L
- Cell Dry Weight of Chlorella (Chlorella sp. HS26 [1]; initial pH 7.5, 96 h): 4.4 g/L
- Cell Dry Weight of Chlorella (Chlorella sp. HS26 [1]; initial pH 7.5, 144 h): 6.0 g/L
- Cell Dry Weight of Chlorella (Chlorella sp. HS26 [1]; initial pH 8.5, 0 h): 0.6 g/L
- Cell Dry Weight of Chlorella (Chlorella sp. HS26 [1]; initial pH 8.5, 24 h): 0.8 g/L
- Cell Dry Weight of Chlorella (Chlorella sp. HS26 [1]; initial pH 8.5, 48 h): 2.4 g/L
- Cell Dry Weight of Chlorella (Chlorella sp. HS26 [1]; initial pH 8.5, 96 h): 4.2 g/L
- Cell Dry Weight of Chlorella (Chlorella sp. HS26 [1]; initial pH 8.5, 144 h): 6.0 g/L
- Cell Dry Weight of Chlorella (Chlorella sp. HS26 [1]; initial pH 9.5, 0 h): 0.6 g/L
- Cell Dry Weight of Chlorella (Chlorella sp. HS26 [1]; initial pH 9.5, 24 h): 0.8 g/L
- Cell Dry Weight of Chlorella (Chlorella sp. HS26 [1]; initial pH 9.5, 48 h): 1.2 g/L
- Cell Dry Weight of Chlorella (Chlorella sp. HS26 [1]; initial pH 9.5, 96 h): 4.3 g/L
- Cell Dry Weight of Chlorella (Chlorella sp. HS26 [1]; initial pH 9.5, 144 h): 6.1 g/L
- Cell Dry Weight of Chlorella (Chlorella sp. HS26 [1]; initial pH 10.5, 0 h): 0.6 g/L
- Cell Dry Weight of Chlorella (Chlorella sp. HS26 [1]; initial pH 10.5, 24 h): 0.9 g/L
- Cell Dry Weight of Chlorella (Chlorella sp. HS26 [1]; initial pH 10.5, 48 h): 1.4 g/L
- Cell Dry Weight of Chlorella (Chlorella sp. HS26 [1]; initial pH 10.5, 96 h): 4.3 g/L
- Cell Dry Weight of Chlorella (Chlorella sp. HS26 [1]; initial pH 10.5, 144 h): 6.1 g/L
- growth (Chlorella sp. HS26 [2]; 2.5 g/L sodium acetate): 0.620 g/L day
- time to reach exponential phase (Chlorella sp. HS26 [2]; 2.5 g/L sodium acetate): 48 h
- growth (Chlorella sp. HS26 [2]; 5 g/L sodium acetate): 0.065 g/L day
- Chlorella dry weights (Chlorella sp. HS26 [2]; sodium acetate 2.5 g/L, 0 h): 0.12 g/L
- Chlorella dry weights (Chlorella sp. HS26 [2]; sodium acetate 2.5 g/L, 24 h): 0.23 g/L
- Chlorella dry weights (Chlorella sp. HS26 [2]; sodium acetate 2.5 g/L, 48 h): 0.85 g/L
- Chlorella dry weights (Chlorella sp. HS26 [2]; sodium acetate 2.5 g/L, 72 h): 1.10 g/L
- Chlorella dry weights (Chlorella sp. HS26 [2]; sodium acetate 2.5 g/L, 144 h): 2.72 g/L
- Chlorella dry weights (Chlorella sp. HS26 [2]; sodium acetate 2.5 g/L, 168 h): 3.23 g/L
- Chlorella dry weights (Chlorella sp. HS26 [2]; sodium acetate 5 g/L, 0 h): 0.12 g/L
- Chlorella dry weights (Chlorella sp. HS26 [2]; sodium acetate 5 g/L, 24 h): 0.19 g/L
- Chlorella dry weights (Chlorella sp. HS26 [2]; sodium acetate 5 g/L, 48 h): 0.25 g/L
- Chlorella dry weights (Chlorella sp. HS26 [2]; sodium acetate 5 g/L, 72 h): 0.55 g/L
- Chlorella dry weights (Chlorella sp. HS26 [2]; sodium acetate 5 g/L, 144 h): 1.89 g/L
- Chlorella dry weights (Chlorella sp. HS26 [2]; sodium acetate 5 g/L, 168 h): 2.41 g/L
- Chlorella dry weights (Chlorella sp. HS26 [2]; sodium acetate 10 g/L, 0 h): 0.12 g/L
- Chlorella dry weights (Chlorella sp. HS26 [2]; sodium acetate 10 g/L, 24 h): 0.13 g/L
- Chlorella dry weights (Chlorella sp. HS26 [2]; sodium acetate 10 g/L, 48 h): 0.16 g/L
- Chlorella dry weights (Chlorella sp. HS26 [2]; sodium acetate 10 g/L, 72 h): 0.11 g/L
- Chlorella dry weights (Chlorella sp. HS26 [2]; sodium acetate 10 g/L, 144 h): 0.09 g/L
- Chlorella dry weights (Chlorella sp. HS26 [2]; sodium acetate 10 g/L, 168 h): 0.00 g/L
- Chlorella dry weights (Chlorella sp. HS26 [2]; sodium acetate 20 g/L, 0 h): 0.12 g/L
- Chlorella dry weights (Chlorella sp. HS26 [2]; sodium acetate 20 g/L, 24 h): 0.16 g/L
- Chlorella dry weights (Chlorella sp. HS26 [2]; sodium acetate 20 g/L, 48 h): 0.13 g/L
- Chlorella dry weights (Chlorella sp. HS26 [2]; sodium acetate 20 g/L, 72 h): 0.12 g/L
- Chlorella dry weights (Chlorella sp. HS26 [2]; sodium acetate 20 g/L, 144 h): 0.07 g/L
- Chlorella dry weights (Chlorella sp. HS26 [2]; sodium acetate 20 g/L, 168 h): 0.00 g/L
- Chlorella dry weights (Chlorella sp. HS26 [2]; sodium acetate 30 g/L, 0 h): 0.12 g/L
- Chlorella dry weights (Chlorella sp. HS26 [2]; sodium acetate 30 g/L, 24 h): 0.14 g/L
- Chlorella dry weights (Chlorella sp. HS26 [2]; sodium acetate 30 g/L, 48 h): 0.11 g/L
- Chlorella dry weights (Chlorella sp. HS26 [2]; sodium acetate 30 g/L, 72 h): 0.09 g/L
- Chlorella dry weights (Chlorella sp. HS26 [2]; sodium acetate 30 g/L, 144 h): 0.08 g/L
- Chlorella dry weights (Chlorella sp. HS26 [2]; sodium acetate 30 g/L, 168 h): 0.00 g/L
- Chlorella dry weights (Chlorella sp. HS26 [2]; sodium acetate 40 g/L, 0 h): 0.12 g/L
- Chlorella dry weights (Chlorella sp. HS26 [2]; sodium acetate 40 g/L, 24 h): 0.11 g/L
- Chlorella dry weights (Chlorella sp. HS26 [2]; sodium acetate 40 g/L, 48 h): 0.09 g/L
- Chlorella dry weights (Chlorella sp. HS26 [2]; sodium acetate 40 g/L, 72 h): 0.10 g/L
- Chlorella dry weights (Chlorella sp. HS26 [2]; sodium acetate 40 g/L, 144 h): 0.09 g/L
- Chlorella dry weights (Chlorella sp. HS26 [2]; sodium acetate 40 g/L, 168 h): 0.00 g/L
- acetate concentration tolerance (Chlorella sp. HS26 [2]; sodium acetate in the culture, pH 7.5): approximately 7.5 g/L
